Experimental data: ChEMBL document CHEMBL6114950, “Diamino variants of piperazine-based tissue transglutaminase inhibitors” (Bioorg Med Chem Lett, 2025)
Calls of active or inactive are those of the source. The calls are words filed in the database; no cut-off is given here.

Legend:
[1] = target: T1, Protein-glutamine gamma-glutamyltransferase (Homo sapiens) (UniProt P21980); test: Irreversible inhibition of recombinant human TG2 assessed as inhibition constant using Cbz-Glu(gamma-p-nitrophenyl ester)Gly as a substrate at upto 100 uM by continuous colorimetric assay
T1 sequence (whole entry): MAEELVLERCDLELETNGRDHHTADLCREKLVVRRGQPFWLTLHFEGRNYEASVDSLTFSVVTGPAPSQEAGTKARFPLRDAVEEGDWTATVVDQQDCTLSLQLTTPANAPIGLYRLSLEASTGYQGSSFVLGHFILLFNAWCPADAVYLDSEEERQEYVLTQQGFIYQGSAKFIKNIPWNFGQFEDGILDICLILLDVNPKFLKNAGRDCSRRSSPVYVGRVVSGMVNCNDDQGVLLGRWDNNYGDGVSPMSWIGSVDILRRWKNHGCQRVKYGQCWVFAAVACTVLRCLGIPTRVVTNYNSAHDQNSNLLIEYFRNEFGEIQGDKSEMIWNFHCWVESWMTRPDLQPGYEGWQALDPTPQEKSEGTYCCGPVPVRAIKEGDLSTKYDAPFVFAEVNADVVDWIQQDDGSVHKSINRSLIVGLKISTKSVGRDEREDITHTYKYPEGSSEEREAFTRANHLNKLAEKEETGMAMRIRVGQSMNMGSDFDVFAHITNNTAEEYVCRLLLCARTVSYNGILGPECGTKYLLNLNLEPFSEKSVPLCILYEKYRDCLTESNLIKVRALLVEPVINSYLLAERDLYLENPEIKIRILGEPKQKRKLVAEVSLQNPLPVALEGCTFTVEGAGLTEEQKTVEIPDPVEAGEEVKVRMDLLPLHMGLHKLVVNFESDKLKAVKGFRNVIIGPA

[2] = target: T1, Protein-glutamine gamma-glutamyltransferase (Homo sapiens); test: Irreversible inhibition of recombinant human TG2 assessed as Kinact/Ki using Cbz-Glu(gamma-p-nitrophenyl ester)Gly as a substrate at upto 100 uM by continuous colorimetric assay
[3] = target: T1, Protein-glutamine gamma-glutamyltransferase (Homo sapiens); test: Irreversible inhibition of recombinant human TG2 assessed as inactivation constant using Cbz-Glu(gamma-p-nitrophenyl ester)Gly as a substrate at upto 100 uM by continuous colorimetric assay
[4] = Apparent permeability across apical to basolateral side in […] cells; assay type: ADME, cell-based, Canis lupus familiaris; conditions: dog, MDCK-MDR1
[5] = Apparent permeability across basolateral to apical side in […] cells; assay type: ADME, cell-based, Canis lupus familiaris; conditions: dog, MDCK-MDR1
[6] = target: T1, Protein-glutamine gamma-glutamyltransferase (Homo sapiens)
Description: Irreversible inhibition of recombinant human TG2 assessed as inactivation constant using Cbz-Glu(gamma-p-nitrophenyl ester)Gly as a substrate by continuous colorimetric assay

[7] = target: T2, Protein-glutamine gamma-glutamyltransferase (Homo sapiens, UniProt P21980); test: Irreversible inhibition of recombinant human TG2 assessed as inhibition constant using Cbz-Glu(gamma-p-nitrophenyl ester)Gly as a substrate by continuous colorimetric assay
T2 sequence (P21980 whole entry): T1 sequence (whole entry)

[8] = Efflux ratio of apparent permeability in MDCK-MDR1 cells; assay type: ADME, cell-based, Canis lupus familiaris; conditions: dog

| SMILES | inhibition constant (Ki) [1] | kinact/Ki [2] | inactivation constant (kinact) [3] | Papp A→B [4] [×10⁻⁶ cm/s] | Papp B→A [5] [×10⁻⁶ cm/s] | Kinact [6] [min⁻¹] | Ki [7] [µM] | efflux ratio [8] |
| --- | --- | --- | --- | --- | --- | --- | --- | --- |
| C=CC(=O)NCC(=O)NCCCNC(=O)C12CC3CC(CC(C3)C1)C2 | inactive | inactive | inactive |  |  |  |  |  |
| C=CC(=O)NCC(=O)N1CC2(CCN(C(=O)C34CC5CC(CC(C5)C3)C4)CC2)C1 | inactive | inactive | inactive |  |  |  |  |  |
| C=CC(=O)NCC(=O)NC1CN(C(=O)C23CC4CC(CC(C4)C2)C3)C1 | inactive | inactive | inactive |  |  |  |  |  |
| C=CC(=O)NCC(=O)NC1CCC(NC(=O)C23CC4CC(CC(C4)C2)C3)CC1 (configuration not stated) | inactive | inactive | inactive |  |  |  |  |  |
| C=CC(=O)NCC(=O)N1CCC2(CC1)CCN(C(=O)C13CC4CC(CC(C4)C1)C3)CC2 | inactive | inactive | inactive |  |  |  |  |  |
| C=CC(=O)N(C)CC(=O)N1CCN(C(=O)C23CC4CC(CC(C4)C2)C3)CC1 |  |  |  | 19.7 | 39 |  |  |  |
| C=CC(=O)NCC(=O)N1CCC[C@@H](NC(=O)C23CC4CC(CC(C4)C2)C3)C1 |  |  |  |  |  | 0.67 | 115 |  |
| C=CC(=O)NCC(=O)NCCNC(=O)C12CC3CC(CC(C3)C1)C2 | inactive | inactive | inactive |  |  |  |  |  |
| C=CC(=O)NCC(=O)NCCCCCNC(=O)C12CC3CC(CC(C3)C1)C2 | inactive | inactive | inactive |  |  |  |  |  |
| C=CC(=O)NCC(=O)N1CCN(C(=O)C23CC4CC(CC(C4)C2)C3)CC1 |  |  |  | 27.2 | 34.3 | 1.5 | 2.82 | 1.27 |
| C=CC(=O)NCC(=O)N1CCC2(CC1)CCN(C(=O)C13CC4CC(CC(C4)C1)C3)C2 |  |  |  |  |  | 0.72 | 112 |  |
